Tests used:
Type in all cases: nucleic-acid assay
Nucleic Acid [1] = assay: Binding affinity to 2-AP labeled mutant RNA3 by fluorescence binding assay
Nucleic Acid [2] = assay: Binding affinity to 2-AP labeled RNA1 by fluorescence binding assay
Nucleic Acid [3] = assay: Binding affinity to 2-AP labeled mutant RNA6 by fluorescence binding assay
Nucleic Acid [4] = assay: Binding affinity to 2-AP labeled mutant RNA2 by fluorescence binding assay
Nucleic Acid [5] = assay: Binding affinity to 2-AP labeled mutant RNA8 by fluorescence binding assay
Nucleic Acid [6] = assay: Binding affinity to 2-AP labeled mutant RNA7 by fluorescence binding assay
Nucleic Acid [7] = assay: Binding affinity to 2-AP labeled mutant RNA4 by fluorescence binding assay
Nucleic Acid [8] = assay: Binding affinity to 2-AP labeled mutant RNA5 by fluorescence binding assay

`CO[C@@H]1C[C@H](NC(=O)[C@@H]2C[C@H](O[C@H]3O[C@H](CN)[C@@H](O)[C@H](O)[C@H]3N)[C@@H](N)C[C@H]2N)[C@@H](N)C[C@H]1N` was tested, and the Kd (Nucleic Acid [1]) was 2200 nM, the Kd (Nucleic Acid [2]) was 2200 nM and the Kd (Nucleic Acid [3]) was 1400 nM. The Kd (Nucleic Acid [4]) was 1500 nM, the Kd (Nucleic Acid [5]) was 1400 nM and the Kd (Nucleic Acid [6]) was 2900 nM. The Kd (Nucleic Acid [7]) was 1700 nM and the Kd (Nucleic Acid [8]) was 500 nM.
For `NC[C@@H]1O[C@H](O[C@H]2[C@@H](O)[C@H](O[C@@H]3[C@@H](O)[C@H](N)C[C@H](N)[C@H]3O[C@H]3O[C@H](CN)[C@@H](O)[C@H](O)[C@H]3N)O[C@@H]2CO)[C@H](N)[C@@H](O)[C@@H]1O` [FRAMYCETIN], the Kd (Nucleic Acid [1]) was 1100 nM, the Kd (Nucleic Acid [2]) was 1500 nM and the Kd (Nucleic Acid [6]) was 1100 nM. For the same compound, the Kd (Nucleic Acid [8]) was 1100 nM.
